Data as given in the NIST ThermoML archive (doi:10.1021/acs.jced.8b01095).
± gives the expanded uncertainty stated by the source.

Test: xn = mol fraction of the nth substance listed
Settings: Liquid; for viscosity: 2 kPa, Falling or rolling sphere viscometry; for speed of sound / mass density: 100 kPa; for speed of sound: Single path-length method; for mass density: Vibrating tube method

CNc1ccccc1 [N-methylaniline] + CCCC[n+]1ccn(C)c1.O=S(=O)([N-]S(=O)(=O)C(F)(F)F)C(F)(F)F
Settings	mass density [kg/m3]	speed of sound [m/s]	viscosity [mPa·s]
298.15 K, x2 = 0	982.7 ± 1	1564.5 ± 0.7	1.94 ± 0.62
298.15 K, x2 = 0.0958	1085.92 ± 1	1478.4 ± 0.8	3.78 ± 1.1
298.15 K, x2 = 0.2004	1171.17 ± 1	1416.5 ± 0.8	7.41 ± 1.2
298.15 K, x2 = 0.3061	1237.44 ± 1	1372.1 ± 0.8	10.89 ± 2
298.15 K, x2 = 0.4074	1287.31 ± 1	1337.5 ± 0.9	15.38 ± 2.4
298.15 K, x2 = 0.4939	1321.9 ± 1.1	1312.1 ± 0.9	19.38 ± 2.7
298.15 K, x2 = 0.5905	1352.65 ± 1.1	1286.8 ± 0.9	23.54 ± 3.6
298.15 K, x2 = 0.6834	1377.01 ± 1.1	1267.9 ± 1	28.71 ± 4.2
298.15 K, x2 = 0.7988	1402.4 ± 1.1	1250.4 ± 1	35.25 ± 5.6
298.15 K, x2 = 0.8751	1415.81 ± 1.1	1241 ± 1.1	40.87 ± 6
303.15 K, x2 = 0	978.59 ± 1	1546.1 ± 0.7	1.73 ± 0.62
303.15 K, x2 = 0.0958	1081.63 ± 1	1462.9 ± 0.8	3.32 ± 0.83
303.15 K, x2 = 0.2004	1166.89 ± 1	1402.2 ± 0.8	6.34 ± 1.1
303.15 K, x2 = 0.3061	1233.05 ± 1	1358.7 ± 0.8	9.2 ± 1.5
303.15 K, x2 = 0.4074	1282.85 ± 1	1324.7 ± 0.9	12.87 ± 2.1
303.15 K, x2 = 0.4939	1317.38 ± 1.1	1299.7 ± 0.9	16.31 ± 2.5
303.15 K, x2 = 0.5905	1348.07 ± 1.1	1275.1 ± 0.9	19.68 ± 3
303.15 K, x2 = 0.6834	1372.38 ± 1.1	1256.5 ± 1	23.79 ± 3.7
303.15 K, x2 = 0.7988	1397.7 ± 1.1	1239.1 ± 1	29.03 ± 4.6
303.15 K, x2 = 0.8751	1411.09 ± 1.1	1229.8 ± 1.1	33.45 ± 5.4
308.15 K, x2 = 0	974.47 ± 1	1528.3 ± 0.7	1.55 ± 0.61
308.15 K, x2 = 0.0958	1077.34 ± 1	1447.9 ± 0.8	2.93 ± 0.77
308.15 K, x2 = 0.2004	1162.61 ± 1	1388 ± 0.8	5.47 ± 0.99
308.15 K, x2 = 0.3061	1228.67 ± 1	1345.4 ± 0.8	7.87 ± 1.2
308.15 K, x2 = 0.4074	1278.4 ± 1	1312.1 ± 0.9	10.91 ± 1.7
308.15 K, x2 = 0.4939	1312.87 ± 1.1	1287.6 ± 0.9	13.85 ± 2.1
308.15 K, x2 = 0.5905	1343.49 ± 1.1	1263.3 ± 0.9	16.65 ± 2.4
308.15 K, x2 = 0.6834	1367.74 ± 1.1	1245 ± 1	20 ± 2.9
308.15 K, x2 = 0.7988	1393.02 ± 1.1	1228.1 ± 1	24.27 ± 3.6
308.15 K, x2 = 0.8751	1406.37 ± 1.1	1218.9 ± 1.1	27.84 ± 4.2
313.15 K, x2 = 0	970.36 ± 1	1511.5 ± 0.7	1.4 ± 0.61
313.15 K, x2 = 0.0958	1073.05 ± 1	1433.7 ± 0.8	2.61 ± 0.73
313.15 K, x2 = 0.2004	1158.33 ± 1	1373.8 ± 0.8	4.76 ± 0.89
313.15 K, x2 = 0.3061	1224.28 ± 1	1332.5 ± 0.8	6.8 ± 1.1
313.15 K, x2 = 0.4074	1273.93 ± 1	1299.9 ± 0.9	9.36 ± 1.4
313.15 K, x2 = 0.4939	1308.35 ± 1.1	1275.7 ± 0.9	11.86 ± 1.7
313.15 K, x2 = 0.5905	1338.91 ± 1.1	1251.8 ± 0.9	14.24 ± 2
313.15 K, x2 = 0.6834	1363.11 ± 1.1	1233.8 ± 1	17.04 ± 2.4
313.15 K, x2 = 0.7988	1388.31 ± 1.1	1217.1 ± 1	20.57 ± 2.9
313.15 K, x2 = 0.8751	1401.64 ± 1.1	1208.1 ± 1.1	23.51 ± 3.3
318.15 K, x2 = 0	966.24 ± 1	1492.8 ± 0.7	1.27 ± 0.61
318.15 K, x2 = 0.0958	1068.75 ± 1	1417.6 ± 0.8	2.34 ± 0.7
318.15 K, x2 = 0.2004	1154.04 ± 1	1359.9 ± 0.8	4.17 ± 0.82
318.15 K, x2 = 0.3061	1219.9 ± 1	1319.4 ± 0.8	5.94 ± 0.95
318.15 K, x2 = 0.4074	1269.47 ± 1	1287.4 ± 0.9	8.12 ± 1.2
318.15 K, x2 = 0.4939	1303.83 ± 1.1	1263.6 ± 0.9	10.24 ± 1.5
318.15 K, x2 = 0.5905	1334.33 ± 1.1	1240 ± 0.9	12.3 ± 1.7
318.15 K, x2 = 0.6834	1358.47 ± 1.1	1222.4 ± 1	14.69 ± 1.9
318.15 K, x2 = 0.7988	1383.61 ± 1.1	1206.1 ± 1	17.64 ± 2.3
318.15 K, x2 = 0.8751	1396.92 ± 1.1	1197.1 ± 1.1	20.12 ± 2.6
323.15 K, x2 = 0	962.13 ± 1	1476.2 ± 0.7	1.16
323.15 K, x2 = 0.0958	1064.46 ± 1	1403.2 ± 0.8	2.11 ± 0.65
323.15 K, x2 = 0.2004	1149.76 ± 1	1346.5 ± 0.8	3.68 ± 0.78
323.15 K, x2 = 0.3061	1215.52 ± 1	1306.7 ± 0.8	5.23 ± 0.83
323.15 K, x2 = 0.4074	1265 ± 1	1275.5 ± 0.9	7.1 ± 1
323.15 K, x2 = 0.4939	1299.32 ± 1.1	1252 ± 0.9	8.9 ± 1.3
323.15 K, x2 = 0.5905	1329.74 ± 1.1	1228.6 ± 0.9	10.72 ± 1.5
323.15 K, x2 = 0.6834	1353.84 ± 1.1	1211.5 ± 1	12.79 ± 1.8
323.15 K, x2 = 0.7988	1378.91 ± 1.1	1195.2 ± 1	15.29 ± 2
323.15 K, x2 = 0.8751	1392.22 ± 1.1	1186.4 ± 1.1	17.41 ± 2.5
